From US12247015B2, “3-amino-4H-benzo[e][1,2,4]thiadiazine 1,1-dioxide derivatives as inhibitors of MRGX2” (Solent Therapeutics, LLC, priority 2019, dated 2025)

The molecules below were run against hMRGX2 (CHO-K1 cells overexpressing MRGX2) (Homo sapiens (Human), UniProt Q96LB1) (assay: In vitro inhibition (EC50) of intracellular calcium flux, FLIPR Tetra, substance P stimulation). Details: stimulated with MRGX2 ligand substance P, FLIPR Calcium 5, read-out: hMRGX2 Cellular Potency (pEC50) (converted).
Chain of hMRGX2 (CHO-K1 cells overexpressing MRGX2) (Q96LB1 whole entry): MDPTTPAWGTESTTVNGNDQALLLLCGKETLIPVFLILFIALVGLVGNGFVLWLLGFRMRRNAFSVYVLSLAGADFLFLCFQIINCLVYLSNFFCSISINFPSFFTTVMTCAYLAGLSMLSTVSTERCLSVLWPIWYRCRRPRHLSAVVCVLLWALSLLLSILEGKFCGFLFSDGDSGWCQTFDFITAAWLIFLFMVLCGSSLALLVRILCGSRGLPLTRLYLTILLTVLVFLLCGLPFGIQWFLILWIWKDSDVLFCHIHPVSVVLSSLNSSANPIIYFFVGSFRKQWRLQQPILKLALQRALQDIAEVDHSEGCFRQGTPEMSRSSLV
Format: cell-based
Procedure: In Vitro Inhibition (EC50) of Intracellular Calcium Flux
The release of intracellular calcium following stimulation of cells with substance P in the presence or absence of inhibitor compounds was measured using the FLIPR Tetra® system. CHO-K1 cells overexpressing MRGX2 were seeded into 384-well plates (Black clear bottom, TC-treated, Fisher #07-200-655) and incubated overnight to allow for cell attachment. Media was removed, and 1× loading buffer (FLIPR® Calcium 5 assay solution, Molecular Devices, per manufacturer specifications) was added. The plates were incubated at 37° C. for 30 minutes. Test compounds were added to cells (11-point dose response, 10 µM maximum concentration) and fluorescence measured (120 seconds, in real time) using the FLIPR Tetra® system. Immediately following, MRGX2 ligand substance P was added at a final concentration of 1 µM and fluorescence measured (120 seconds, in real time) using the FLIPR Tetra® system. The data for the examples are reported as pEC50.
Molecule `Cn1cccc(CNC2=NS(=O)(=O)c3cccc(-c4cccc(F)c4Cl)c3N2)c1=O` [Example 46, 3-(((5-(2-chloro-3-fluorophenyl)-1,1-dioxido-4H-benzo[e][1,2,4]thiadiazin-3-yl)amino)methyl)-1-methylpyridin-2(1H)-one] has an EC50 of 87.9 nM. Work on `CO[C@H](C)CNC1=NS(=O)(=O)c2cccc(-c3cccc(F)c3Cl)c2N1` [Example 47, (R)-5-(2-chloro-3-fluorophenyl)-3-((2-methoxypropyl)amino)-4H-benzo[e][1,2,4]thiadiazine 1,1-dioxide] yielded an EC50 of 93.3 nM. `O=S1(=O)N=C(NCc2ncco2)Nc2c(-c3ccnc(F)c3Cl)cccc21` [Example 48, 5-(3-chloro-2-fluoropyridin-4-yl)-3-((oxazol-2-ylmethyl)amino)-4H-benzo[e][1,2,4]thiadiazine 1,1-dioxide] was tested, and the EC50 was 36 nM. `O=S1(=O)N=C(NCc2nccs2)Nc2c(-c3ccnc(F)c3Cl)cccc21` [Example 49, 5-(3-chloro-2-fluoropyridin-4-yl)-3-((thiazol-2-ylmethyl)amino)-4H-benzo[e][1,2,4]thiadiazine 1,1-dioxide] was tested, and the EC50 was 24.2 nM. Molecule `O=S1(=O)N=C(NCC2CC2)Nc2c(-c3ccnc(F)c3Cl)cccc21` [Example 50, 5-(3-chloro-2-fluoropyridin-4-yl)-3-((cyclopropylmethyl)amino)-4H-benzo[e][1,2,4]thiadiazine 1,1-dioxide] has an EC50 of 70.8 nM. `O=S1(=O)N=C(NCc2ncccc2F)Nc2c(-c3ccnc(F)c3Cl)cccc21` [Example 51, 5-(3-chloro-2-fluoropyridin-4-yl)-3-(((3-fluoropyridin-2-yl)methyl)amino)-4H-benzo[e][1,2,4]thiadiazine 1,1-dioxide] was tested, and the EC50 was 19 nM. `CCNC1=NS(=O)(=O)c2cccc(-c3ccnc(F)c3Cl)c2N1` [Example 52, 5-(3-chloro-2-fluoropyridin-4-yl)-3-(ethylamino)-4H-benzo[e][1,2,4]thiadiazine 1,1-dioxide] was tested, and the EC50 was 131 nM. Molecule `O=S1(=O)N=C(NCC(F)F)Nc2c(-c3ccnc(F)c3Cl)cccc21` [Example 53, 5-(3-chloro-2-fluoropyridin-4-yl)-3-((2,2-difluoroethyl)amino)-4H-benzo[e][1,2,4]thiadiazine 1,1-dioxide] has an EC50 of 575 nM. With `O=S1(=O)N=C(NCc2ccc(F)cc2)Nc2c(-c3ccnc(F)c3Cl)cccc21` [Example 54, 5-(3-chloro-2-fluoropyridin-4-yl)-3-((4-fluorobenzyl)amino)-4H-benzo[e][1,2,4]thiadiazine 1,1-dioxide] the EC50 was 13.2 nM. `N#Cc1cnc(CNC2=NS(=O)(=O)c3cccc(-c4ccnc(F)c4Cl)c3N2)s1` [Example 55, 2-(((5-(3-chloro-2-fluoropyridin-4-yl)-1,1-dioxido-4H-benzo[e][1,2,4]thiadiazin-3-yl)amino)methyl)thiazole-5-carbonitrile] gave an EC50 of 136 nM. With `CNC1=NS(=O)(=O)c2cccc(-c3ccnc(F)c3Cl)c2N1` [Example 56, 5-(3-chloro-2-fluoropyridin-4-yl)-3-(methylamino)-4H-benzo[e][1,2,4]thiadiazine 1,1-dioxide] the EC50 was 282 nM. `CN1CCOC(CNC2=NS(=O)(=O)c3cccc(-c4cccc(F)c4Cl)c3N2)C1` (stereo not shown) [Example 57, 5-(2-chloro-3-fluorophenyl)-3-(((4-methylmorpholin-2-yl)methyl)amino)-4H-benzo[e][1,2,4]thiadiazine 1,1-dioxide] showed an EC50 of 173 nM. Molecule `CCOC(C)CNC1=NS(=O)(=O)c2cccc(-c3cccc(F)c3Cl)c2N1` (stereo not shown) [Example 58, 5-(2-chloro-3-fluorophenyl)-3-((2-ethoxypropyl)amino)-4H-benzo[e][1,2,4]thiadiazine 1,1-dioxide] has an EC50 of 179 nM. With `Cc1nn(C)cc1-c1cccc2c1NC(NCc1ccc(Cl)cn1)=NS2(=O)=O` [Example 59, 3-(((5-chloropyridin-2-yl)methyl)amino)-5-(1,3-dimethyl-1H-pyrazol-4-yl)-4H-benzo[e][1,2,4]thiadiazine 1,1-dioxide] the EC50 was 248 nM. `COC(C)CNC1=NS(=O)(=O)c2cccc(-c3cn(C)nc3C)c2N1` (stereo not shown) [Example 60, 5-(1,3-dimethyl-1H-pyrazol-4-yl)-3-((2-methoxypropyl)amino)-4H-benzo[e][1,2,4]thiadiazine 1,1-dioxide] gave an EC50 of 865 nM. With `Cc1nn(C)cc1-c1cccc2c1NC(NCC1CCC1)=NS2(=O)=O` [Example 61, 3-((cyclobutylmethyl)amino)-5-(1,3-dimethyl-1H-pyrazol-4-yl)-4H-benzo[e][1,2,4]thiadiazine 1,1-dioxide] the EC50 was 430 nM. `CN(C)C(=O)CNC1=NS(=O)(=O)c2cccc(-c3cccc(F)c3Cl)c2N1` [Example 62, 2-((5-(2-chloro-3-fluorophenyl)-1,1-dioxido-4H-benzol[e][1,2,4]thiadiazin-3-yl)amino)-N,N-dimethylacetamide] gave an EC50 of 279 nM. In the case of `COCCNC1=NS(=O)(=O)c2cccc(-c3ccccc3C3CC3)c2N1` [Example 63, 5-(2-cyclopropylphenyl)-3-((2-methoxyethyl)amino)-4H-benzo[e][1,2,4]thiadiazine 1,1-dioxide], the EC50 was 953 nM. For `O=S1(=O)N=C(NCc2ccsn2)Nc2c(-c3cccc(F)c3Cl)cccc21` [Example 64, 5-(2-chloro-3-fluorophenyl)-3-((isothiazol-3-ylmethyl)amino)-4H-benzo[e][1,2,4]thiadiazine 1,1-dioxide], the EC50 was 15.6 nM. Work on `O=S1(=O)N=C(NCCc2ccccn2)Nc2c(-c3cccc(F)c3Cl)cccc21` [Example 67, 5-(2-chloro-3-fluorophenyl)-3-((2-(pyridin-2-yl)ethyl)amino)-4H-benzo[e][1,2,4]thiadiazine 1,1-dioxide] yielded an EC50 of 36.6 nM. `O=S1(=O)N=C(NCCc2ccncc2)Nc2c(-c3cccc(F)c3Cl)cccc21` [Example 68, 5-(2-chloro-3-fluorophenyl)-3-((2-(pyridin-4-yl)ethyl)amino)-4H-benzo[e][1,2,4]thiadiazine 1,1-dioxide] showed an EC50 of 305 nM. `O=S1(=O)N=C(NCCc2cccnc2)Nc2c(-c3cccc(F)c3Cl)cccc21` [Example 69, 5-(2-chloro-3-fluorophenyl)-3-((2-(pyridin-3-yl)ethyl)amino)-4H-benzo[e][1,2,4]thiadiazine 1,1-dioxide] showed an EC50 of 601 nM. `COc1cccc(CCNC2=NS(=O)(=O)c3cccc(-c4cccc(F)c4Cl)c3N2)c1` [Example 70, 5-(2-chloro-3-fluorophenyl)-3-((3-methoxyphenethyl)amino)-4H-benzo[e][1,2,4]thiadiazine 1,1-dioxide] showed an EC50 of 57.9 nM. In the case of `COc1ccccc1CCNC1=NS(=O)(=O)c2cccc(-c3cccc(F)c3Cl)c2N1` [Example 71, 5-(2-chloro-3-fluorophenyl)-3-((2-methoxyphenethyl)amino)-4H-benzo[e][1,2,4]thiadiazine 1,1-dioxide], the EC50 was 82.8 nM. `COc1ccc(CCNC2=NS(=O)(=O)c3cccc(-c4cccc(F)c4Cl)c3N2)cc1` [Example 72, 5-(2-chloro-3-fluorophenyl)-3-((4-methoxyphenethyl)amino)-4H-benzo[e][1,2,4]thiadiazine 1,1-dioxide] was tested, and the EC50 was 39.8 nM. In the case of `O=S1(=O)N=C(NCCC2CCCO2)Nc2c(-c3cccc(F)c3Cl)cccc21` (stereo not shown) [Example 73, 5-(2-chloro-3-fluorophenyl)-3-((2-(tetrahydrofuran-2-yl)ethyl)amino)-4H-benzo[e][1,2,4]thiadiazine 1,1-dioxide], the EC50 was 139 nM. `Cc1cc(NC2=NS(=O)(=O)c3cccc(-c4cccc(F)c4Cl)c3N2)nn1C(C)C` [Example 74, 5-(2-chloro-3-fluorophenyl)-3-((1-isopropyl-5-methyl-1H-pyrazol-3-yl)amino)-4H-benzo[e][1,2,4]thiadiazine 1,1-dioxide] showed an EC50 of 746 nM. `O=S1(=O)N=C(NCc2ccc(F)cc2)Nc2c(-c3cc(F)cc(F)c3)cccc21` [Example 75, 5-(3,5-difluorophenyl)-3-((4-fluorobenzyl)amino)-4H-benzo[e][1,2,4]thiadiazine 1,1-dioxide] gave an EC50 of 34.6 nM. In the case of `O=S1(=O)N=C(NCc2cc(F)ccc2F)Nc2c(-c3cc(F)cc(F)c3)cccc21` [Example 76, 3-((2,5-difluorobenzyl)amino)-5-(3,5-difluorophenyl)-4H-benzo[e][1,2,4]thiadiazine 1,1-dioxide], the EC50 was 34.8 nM. In the case of `O=S1(=O)N=C(NCc2ccccc2F)Nc2c(-c3cc(F)cc(F)c3)cccc21` [Example 77, 5-(3,5-difluorophenyl)-3-((2-fluorobenzyl)amino)-4H-benzo[e][1,2,4]thiadiazine 1,1-dioxide], the EC50 was 34.9 nM. `O=S1(=O)N=C(NCc2c(F)cccc2F)Nc2c(-c3cc(F)cc(F)c3)cccc21` [Example 78, 3-((2,6-difluorobenzyl)amino)-5-(3,5-difluorophenyl)-4H-benzo[e][1,2,4]thiadiazine 1,1-dioxide] showed an EC50 of 224 nM. In the case of `Cc1cccc(CNC2=NS(=O)(=O)c3cccc(-c4cc(F)cc(F)c4)c3N2)n1` [Example 79, 5-(3,5-difluorophenyl)-3-(((6-methylpyridin-2-yl)methyl)amino)-4H-benzo[e][1,2,4]thiadiazine 1,1-dioxide], the EC50 was 368 nM. `O=S1(=O)N=C(NCCc2ccccn2)Nc2c(-c3cc(F)cc(F)c3)cccc21` [Example 80, 5-(3,5-difluorophenyl)-3-((2-(pyridin-2-yl)ethyl)amino)-4H-benzo[e][1,2,4]thiadiazine 1,1-dioxide] gave an EC50 of 897 nM. For `O=S1(=O)N=C(NCC2CCC2)Nc2c(-c3cc(F)cc(F)c3)cccc21` [Example 81, 3-((cyclobutylmethyl)amino)-5-(3,5-difluorophenyl)-4H-benzo[e][1,2,4]thiadiazine 1,1-dioxide], the EC50 was 384 nM.
